# Several values for one entry are separate records, joined by “and”; a condition that tells them apart may be missing. Equal entries are not always repeated.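 Dose response: 5 concentrations. Exposure: 48 h. Format: 96-well plates. Endpoint: linear interpolation; highest concentration if not reached. GI50: concentration for 50% inhibition of growth. The concentration for full growth arrest is given as TGI.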
# How the values were obtained:
# Experiment in all cases: NCI tumour cell line growth inhibition, 48 h
# [1] = system: DLD-1 colon
# [2] = system: DMS 273 small cell lung
# [3] = system: KM20L2 colon
# [4] = system: M19-MEL melanoma
# [5] = system: OVCAR-4 ovarian
# [6] = system: OVCAR-8 ovarian
# [7] = system: RXF 393 renal
# [8] = system: SK-MEL-28 melanoma
# [9] = system: SW-620 colon
# [10] = system: UACC-257 melanoma
# [11] = system: UACC-62 melanoma
# [12] = system: DU-145 prostate
SMILES,TGI [1] [µM],TGI [2] [µM],TGI [3] [µM],TGI [4] [µM],TGI [5],TGI [6],TGI [7],TGI [8],TGI [9],TGI [10],TGI [11],TGI [12],GI50 [8],GI50 [10],GI50 [12] [µM],GI50 [5] [µM],GI50 [6] [µM],GI50 [9] [µM],GI50 [7] [µM],GI50 [11] [µM]
[O-][n+]1c2cc(CN3CCOCC3)c(CN3CCOCC3)cc2[n+]([O-])c2c(O)cccc21,6.8,15,15.4,8.83,9.81 µM,7.12 µM,5.11 µM,32.5 µM,7.16 µM,16.3 µM,12.9 µM,,,,,,,,,
N#CC(C(=O)CCC(=O)Nc1ccc(Cl)c(Cl)c1)c1ccc(Cl)cc1 (stereo not given),> 100,> 100,> 100,> 100,> 100 µM,> 100 µM,> 100 µM,> 100 µM,> 100 µM,> 100 µM,> 100 µM,,,,,,,,,
O=C(NC1C=Nc2ccccc2NC1=O)c1ccccc1Cl (stereo not given),> 100,> 100,> 100,> 100,> 100 µM,> 100 µM,62.9 µM,> 100 µM,29 µM,> 100 µM,> 100 µM,,,,,,,,,
O=S(=O)(N/N=C/c1ccc(Cl)cc1Cl)c1ccccc1,> 100,> 100,> 100,> 100,> 100 µM,> 100 µM,> 100 µM,> 100 µM,> 100 µM,> 100 µM,> 100 µM,,,,,,,,,
NS(=O)(=O)c1ccc(NC(=O)c2cccc3c(Nc4ccc(S(N)(=O)=O)cc4)c4ccccc4nc23)cc1,> 100,5.15,> 100,> 100,55.6 µM,> 100 µM,> 100 µM,> 100 µM,> 100 µM,> 100 µM,> 100 µM,,,,,,,,,
COc1ccc(/C=N\O[Si](C)(C)C(C)(C)C)cc1O[Si](C)(C)C(C)(C)C,32.9,34.1,> 100,36.5,46.3 µM,45.2 µM,28.4 µM,,36.9 µM,43.3 µM,40.2 µM,,,,,,,,,
O=c1cc(-c2ccc(O)cc2)oc2cc(O)cc(O)c12,,40.2,88.2,> 100,> 100 µM,,,59.1 µM,,73.9 µM,> 100 µM,,,,,,,,,
CCCCCCCCCCCCCCCCCc1nnc(N)o1,> 100,> 100,> 100,> 100,> 100 µM,> 100 µM,,> 100 µM,> 100 µM,> 100 µM,> 100 µM,,,,,,,,,
O=C(O)c1cc(=O)c2cc(C(=O)c3cccs3)c(Cl)c(Cl)c2o1,> 100,,> 100,,> 100 µM,> 100 µM,,> 100 µM,> 100 µM,> 100 µM,> 100 µM,,,,,,,,,
COc1cc2nncc(SCc3ccc(Cl)c(Cl)c3)c2cc1OC,,> 100,> 100,> 100,> 91.9 µM,> 100 µM,> 100 µM,> 100 µM,> 100 µM,> 100 µM,> 100 µM,> 100 µM,,,,,,,,
O=C(CC(=O)C1CCOC1=O)C(=O)Nc1ccc(Cl)cc1 (stereo not given),> 100,> 100,> 100,> 100,> 100 µM,> 100 µM,> 100 µM,> 100 µM,> 100 µM,> 100 µM,> 100 µM,,,,,,,,,
COc1cc2c3cc1Oc1c(OC)c(OC)cc4c1C(Cc1ccc(cc1)Oc1cc(ccc1O)CC3N(C)CC2)N(C)CC4 (stereo not given),54.9,,24.7,24.2,29.6 µM and 31.3 µM,> 100 µM and 34.8 µM,5.69 µM and 4.03 µM,25.9 µM and 26 µM,22.6 µM and 45.8 µM,26.7 µM and 4.29 µM,28.5 µM and 21.7 µM,24.8 µM,12.9 µM and 5.81 µM,13.3 µM and 1.96 µM,,,,,,
NC(=O)N/N=C(\CCC(=O)N(Cc1ccccc1)Cc1ccccc1)CC(=O)c1ccc(F)cc1,> 100,,> 100,> 100,> 100 µM,> 100 µM,> 100 µM,> 100 µM,> 100 µM,> 100 µM,> 100 µM,,,,,,,,,
COC(=O)c1nc(N)nc(C(=O)OC)c1C(=O)c1ccccc1,> 100,,> 100,> 100,,> 100 µM,> 100 µM,> 100 µM,> 100 µM,> 100 µM,> 100 µM,,,,,,,,,
COC1(Cc2ccccc2)C(=O)c2ccccc2N1C(C)=O (stereo not given),> 100,> 100,> 100,> 100,> 100 µM,> 100 µM,> 100 µM,> 100 µM,> 100 µM,> 100 µM,> 100 µM,,,,,,,,,
CCN(CC)CCC(=O)O[C@H]1CC[C@H](CC(C)[C@H]2CC(=O)C(C)C=C(C)[C@H](OC(=O)CCN(CC)CC)C(OC)C(=O)[C@@H](C)CC(C)/C=C/C=C/C=C(C)C(OC)CC3CC[C@H](C)[C@](O)(O3)C(=O)C(=O)N3CCCCC3C(=O)O2)CC1OC (stereo not given in full),2.62,2.32,> 4.99,,> 10 µM and 2.46 µM,3.49 µM and 2.21 µM,2.2 µM,1.95 µM,3.66 µM and 2 µM,2.54 µM and 2.72 µM,1.99 µM,> 10 µM and 8.38 µM,,,1.17,0.00163,0.00624,1.37,,
COc1ccc(/C(C#N)=C(/N)SCc2ccccc2Cl)cc1,32.7,,34.3,40.6,,> 10 µM,30.9 µM,35.8 µM,29.7 µM,33.7 µM,25.4 µM,,,,,,,,,
CC(=O)O[C@H]1CC[C@@]2(C)C(=C/C(=N\[N+](=O)[O-])[C@H]3C4CCC([C@H](C)CCCC(C)C)[C@@]4(C)CCC32)C1 (stereo not given in full),> 100,> 100,> 100,> 100,> 100 µM,> 100 µM,> 100 µM,> 100 µM,> 100 µM,> 100 µM,> 100 µM,,,,,,,,,

SMILES,TGI [1] [µM],TGI [2] [µM],TGI [3] [µM],TGI [4] [µM],TGI [5],TGI [6],TGI [7],TGI [8],TGI [9],TGI [10],TGI [11],TGI [12],GI50 [8],GI50 [10],GI50 [12] [µM],GI50 [5] [µM],GI50 [6] [µM],GI50 [9] [µM],GI50 [7] [µM],GI50 [11] [µM]
O=c1[nH]cnc2c1ncn2CCCCO,> 100,,> 100,> 100,> 100 µM,> 100 µM,> 100 µM,> 100 µM,> 100 µM,> 100 µM,> 100 µM,,,,,,,,,
CC1=C(C(=O)Nc2ccccc2C)C(c2ccccc2C)C(C(=O)Nc2ccccc2C)=C(C)N1,33.4,,38.9,66.7,53.9 µM,36.8 µM,26.2 µM,42.5 µM,36.2 µM,72.6 µM,,,,,,,,,,
CNc1ncc2cc(Oc3ccc(F)cc3F)c(=O)n(C)c2n1,,,,,> 25 µM,> 25 µM,> 25 µM,> 25 µM,> 25 µM,> 25 µM,> 25 µM,> 25 µM,> 25 µM,> 25 µM,> 25,> 25,> 25,> 25,> 19.3,> 25
CC1CC(=O)c2c(ccc3c2C(=O)c2cccc(O)c2C3=O)C1 (stereo not given),9.56,18.5,,4.96,25.3 µM,11.1 µM,,26.6 µM,17.4 µM,19.2 µM,22.4 µM,,,,,,,,,
O=C1OC(OC/C(Br)=C(/Br)COC2OC(=O)C(Cl)=C2Cl)C(Cl)=C1Cl (stereo not given),,,,,20.1 µM,> 58 µM,13.4 µM,23.3 µM,8.26 µM,25.5 µM,29.1 µM,30.6 µM,,,,,,,,
CN(C)N=Nc1nn(C(=O)Nc2ccc(Cc3ccccc3)cc2)c2ccccc12,,,,,> 100 µM,> 100 µM,> 100 µM,> 100 µM,> 100 µM,> 100 µM,1.65 µM,> 100 µM,,0.862 µM,> 100,,4.1,0.199,> 28.9,0.0385
O=C(CN1C(=O)S/C(=C\C(Cl)=C\c2ccccc2)C1=O)NCCCn1ccnc1,,,,,4.39 µM,> 100 µM,3.68 µM,3.72 µM,3.67 µM,10.2 µM,3.73 µM,5.64 µM,1.85 µM,2.63 µM,2.22,1.86,2.85,1.72,1.83,1.67
CCOC(=O)C1Oc2ccc([N+](=O)[O-])cc2C1(C)O (stereo not given),> 100,> 100,,> 100,> 100 µM,> 100 µM,> 100 µM,> 100 µM,> 100 µM,> 100 µM,> 100 µM,,,,,,,,,
COC(=O)Nc1nc2ccc(S(=O)(=O)c3ccc(NC(=O)Nc4cc(C(F)(F)F)ccc4F)cc3)cc2[nH]1,,,,,> 25 µM,> 25 µM,> 25 µM,> 25 µM,> 25 µM,> 25 µM,> 25 µM,> 25 µM,> 25 µM,> 25 µM,> 25,> 25,> 25,> 25,> 25,> 25
NCCSC(C[N+](=O)[O-])c1ccccc1Cl (stereo not given),,,,,30.1 µM,23.8 µM,11.1 µM,4.6 µM,4.05 µM,4.31 µM,26.3 µM,3.62 µM,2.08 µM,1.91 µM,1.92,12.1,6.43,1.82,2.27,13.2
NNC(=S)N/N=C(/C(=O)Nc1ccc([N+](=O)[O-])cc1)c1nc2ccc([N+](=O)[O-])cc2[nH]c1=O,> 100,,,> 100,> 100 µM,> 100 µM,,> 100 µM,> 100 µM,> 100 µM,> 100 µM,,,,,,,,,
COC(=O)C1C(/C=C/c2ccoc2)ON2CCC[C@@H]12 (stereo not given in full),> 100,> 100,> 100,> 100,> 100 µM,> 100 µM,> 100 µM,> 100 µM,> 100 µM,> 100 µM,,,,,,,,,,
Oc1ccc(O)c2c1C1(Cl)C(Cl)=C(Cl)C2(Cl)C1(Cl)Cl,,,,,> 100 µM,36.6 µM,11.2 µM,81 µM,16.7 µM,17.4 µM,19.5 µM,12.9 µM,10.9 µM,3.97 µM,3.45,8.32,10.3,4.89,3.31,4.96
C=C1C(=O)O[C@H]2[C@H]1CC/C(CNC(=O)/C=C/c1ccc(Cl)cc1Cl)=C\CC[C@@]1(C)O[C@@H]21,,,,,3.01 µM,3.44 µM,1.63 µM,2.93 µM,2.68 µM,2.58 µM,2.9 µM,1.89 µM,1.32 µM,1.21 µM,0.594,1.31,1.37,1.28,0.403,1.33
Nc1ccccc1C#C/C=C\C#Cc1ccccc1F,,,,,> 100 µM,67.7 µM,57.5 µM,75.1 µM,> 100 µM,47.5 µM,21 µM,28 µM,18 µM,15.7 µM,5.49,24.4,18.5,16,17.8,7.72
O=C(NN1C(=O)CSC12CCC(c1ccccc1)CC2)c1[nH]c2ccc(F)cc2c1-c1ccccc1 (stereo not given),,,,,32.5 µM,36.5 µM,29.5 µM,34.3 µM,36.8 µM,35.6 µM,23.8 µM,33.6 µM,18.1 µM,19.3 µM,16.5,15.8,17.8,17.4,15.3,10.8
CN(C)C(=S)SCC(N)=O,,,,,> 100 µM,> 100 µM,> 100 µM,> 100 µM,> 100 µM,> 100 µM,> 100 µM,> 100 µM,,,,,,,,
COc1ccc2c(c1OC)C(=O)O[C@@H]2[C@H]1c2c(c(Br)c3c(c2OC)OCO3)CCN1C,,,,,> 100 µM,> 100 µM,> 100 µM,> 100 µM,> 100 µM,> 100 µM,> 100 µM,> 100 µM,> 100 µM,7.76 µM,> 100,> 100,32.4,5.37,20.3,4.31
